Data as given in the supplement of paper PMC10307832.

Columns and labels:
Assay in all cases: relative viability (nuclei count vs DMSO), 5 days (fraction); higher = more cells survive
[1] = tested on: EPLC-272H
Summary of the method: (§1)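 Cells from lung cancer lines were seeded into 1536-well plates and, one day later, dosed by pin tool. Treatments were either a single drug or a fixed dose of an anchor drug with five library-drug doses (not always all listed) in √10 steps. After 5 days, nuclei were stained in a one-step fixation (final 0.05% Triton X-100, 1% formaldehyde, 1 ug/ml Hoechst) and counted on 4× images, and relative viability is the treated-to-vehicle nuclei ratio, as the median of duplicate plates.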

[2] = tested on: H3255
Summary of the method: as §1

[3] = tested on: HARA
Summary of the method: as §1

[4] = tested on: LC-2-ad
Summary of the method: as §1

[5] = tested on: LOU-NH91
Summary of the method: as §1

[6] = tested on: NCI-H1650
Summary of the method: as §1

[7] = tested on: NCI-H1651
Summary of the method: as §1

[8] = tested on: NCI-H1975
Summary of the method: as §1

[9] = tested on: NCI-H2009
Summary of the method: as §1

[10] = tested on: NCI-H2023
Summary of the method: as §1

[11] = tested on: NCI-H2085
Summary of the method: as §1

[12] = tested on: NCI-H2087
Summary of the method: as §1

[13] = tested on: NCI-H2170
Summary of the method: as §1

[14] = tested on: NCI-H2228
Summary of the method: as §1

[15] = tested on: NCI-H23
Summary of the method: as §1

[16] = tested on: NCI-H441
Summary of the method: as §1

[17] = tested on: NCI-H650
Summary of the method: as §1

[18] = tested on: NCI-H727
Summary of the method: as §1

[19] = tested on: NCI-H838
Summary of the method: as §1

[20] = tested on: PC-3 [JPC-3]
Summary of the method: as §1

[21] = tested on: SW 1573
Summary of the method: as §1

[22] = tested on: SW 900
Summary of the method: as §1

[23] = tested on: UMC-11
Summary of the method: as §1

`Cc1csc(=NC2CCCCC2)n1/N=C/c1ccc(O)c(O)c1O` [MIM1] + O=C(c1cc(Cc2n[nH]c(=O)c3ccccc23)ccc1F)N1CCN(C(=O)C2CC2)CC1 [Olaparib] (partner 8 µM) was tested, and the relative viability ([1]; first compound 0.2 µM) was 0.664, the relative viability ([1]; first compound 0.6325 µM) was 0.858 and the relative viability ([1]; first compound 2 µM) was 0.622. The relative viability ([1]; first compound 6.325 µM) was 0.111, the relative viability ([1]; first compound 20 µM) was 0.108 and the relative viability ([2]; first compound 0.2 µM) was 0.535. For the same compound, the relative viability ([2]; first compound 0.6325 µM) was 0.541, the relative viability ([2]; first compound 2 µM) was 0.518 and the relative viability ([2]; first compound 6.325 µM) was 0.473. The relative viability ([2]; first compound 20 µM) was 0.253, the relative viability ([3]; first compound 0.2 µM) was 0.792 and the relative viability ([3]; first compound 0.6325 µM) was 1.06. The relative viability ([3]; first compound 2 µM) was 0.824, the relative viability ([3]; first compound 6.325 µM) was 0.187 and the relative viability ([3]; first compound 20 µM) was 0.177. The relative viability ([4]; first compound 0.2 µM) was 0.616, the relative viability ([4]; first compound 0.6325 µM) was 0.683 and the relative viability ([4]; first compound 2 µM) was 0.665. The relative viability ([4]; first compound 6.325 µM) was 0.303, the relative viability ([4]; first compound 20 µM) was 0.211 and the relative viability ([5]; first compound 0.2 µM) was 0.92. It also gave a relative viability ([5]; first compound 0.6325 µM) of 0.922, a relative viability ([5]; first compound 2 µM) of 0.596 and a relative viability ([5]; first compound 6.325 µM) of 0.589. The relative viability ([5]; first compound 20 µM) was 0.369, the relative viability ([6]; first compound 0.2 µM) was 0.627 and the relative viability ([6]; first compound 0.6325 µM) was 0.828. The relative viability ([6]; first compound 2 µM) was 0.499, the relative viability ([6]; first compound 6.325 µM) was 0.226 and the relative viability ([6]; first compound 20 µM) was 0.233. The relative viability ([7]; first compound 0.2 µM) was 0.184, the relative viability ([7]; first compound 0.6325 µM) was 0.174 and the relative viability ([7]; first compound 2 µM) was 0.177. For the same compound, the relative viability ([7]; first compound 6.325 µM) was 0.159, the relative viability ([7]; first compound 20 µM) was 0.153 and the relative viability ([8]; first compound 0.2 µM) was 0.737. It also gave a relative viability ([8]; first compound 0.6325 µM) of 0.755, a relative viability ([8]; first compound 2 µM) of 0.778 and a relative viability ([8]; first compound 6.325 µM) of 0.307. It also gave a relative viability ([8]; first compound 20 µM) of 0.17, a relative viability ([9]; first compound 0.2 µM) of 0.662 and a relative viability ([9]; first compound 0.6325 µM) of 0.655. It also gave a relative viability ([9]; first compound 2 µM) of 0.723, a relative viability ([9]; first compound 6.325 µM) of 0.504 and a relative viability ([9]; first compound 20 µM) of 0.482. It also gave a relative viability ([10]; first compound 0.2 µM) of 0.501, a relative viability ([10]; first compound 0.6325 µM) of 0.496 and a relative viability ([10]; first compound 2 µM) of 0.43. The relative viability ([10]; first compound 6.325 µM) was 0.255, the relative viability ([10]; first compound 20 µM) was 0.0641 and the relative viability ([11]; first compound 0.2 µM) was 0.768. For the same compound, the relative viability ([11]; first compound 0.6325 µM) was 0.797, the relative viability ([11]; first compound 2 µM) was 0.771 and the relative viability ([11]; first compound 6.325 µM) was 0.596. The relative viability ([11]; first compound 20 µM) was 0.641, the relative viability ([12]; first compound 0.2 µM) was 0.535 and the relative viability ([12]; first compound 0.6325 µM) was 0.701. The relative viability ([12]; first compound 2 µM) was 0.702, the relative viability ([12]; first compound 6.325 µM) was 0.481 and the relative viability ([12]; first compound 20 µM) was 0.241. It also gave a relative viability ([13]; first compound 0.2 µM) of 0.539, a relative viability ([13]; first compound 0.6325 µM) of 0.533 and a relative viability ([13]; first compound 2 µM) of 0.528. For the same compound, the relative viability ([13]; first compound 6.325 µM) was 0.269, the relative viability ([13]; first compound 20 µM) was 0.141 and the relative viability ([14]; first compound 0.2 µM) was 0.719. It also gave a relative viability ([14]; first compound 0.6325 µM) of 0.719, a relative viability ([14]; first compound 2 µM) of 0.861 and a relative viability ([14]; first compound 6.325 µM) of 0.227. The relative viability ([14]; first compound 20 µM) was 0.192, the relative viability ([15]; first compound 0.2 µM) was 0.302 and the relative viability ([15]; first compound 0.6325 µM) was 0.266. It also gave a relative viability ([15]; first compound 2 µM) of 0.215, a relative viability ([15]; first compound 6.325 µM) of 0.111 and a relative viability ([15]; first compound 20 µM) of 0.13. It also gave a relative viability ([16]; first compound 0.2 µM) of 0.485, a relative viability ([16]; first compound 0.6325 µM) of 0.66 and a relative viability ([16]; first compound 2 µM) of 0.581. For the same compound, the relative viability ([16]; first compound 6.325 µM) was 0.254, the relative viability ([16]; first compound 20 µM) was 0.144 and the relative viability ([17]; first compound 0.2 µM) was 0.421. For the same compound, the relative viability ([17]; first compound 0.6325 µM) was 0.364, the relative viability ([17]; first compound 2 µM) was 0.381 and the relative viability ([17]; first compound 6.325 µM) was 0.357. It also gave a relative viability ([17]; first compound 20 µM) of 0.127, a relative viability ([18]; first compound 0.2 µM) of 0.7 and a relative viability ([18]; first compound 0.6325 µM) of 0.721. The relative viability ([18]; first compound 2 µM) was 0.526, the relative viability ([18]; first compound 6.325 µM) was 0.748 and the relative viability ([18]; first compound 20 µM) was 0.523. It also gave a relative viability ([19]; first compound 0.2 µM) of 0.731, a relative viability ([19]; first compound 0.6325 µM) of 0.944 and a relative viability ([19]; first compound 2 µM) of 0.85. The relative viability ([19]; first compound 6.325 µM) was 0.609, the relative viability ([19]; first compound 20 µM) was 0.237 and the relative viability ([20]; first compound 0.2 µM) was 1.14. The relative viability ([20]; first compound 0.6325 µM) was 1.04, the relative viability ([20]; first compound 2 µM) was 1.07 and the relative viability ([20]; first compound 6.325 µM) was 0.871. For the same compound, the relative viability ([20]; first compound 20 µM) was 0.504, the relative viability ([21]; first compound 0.2 µM) was 0.515 and the relative viability ([21]; first compound 0.6325 µM) was 0.471. It also gave a relative viability ([21]; first compound 2 µM) of 0.608, a relative viability ([21]; first compound 6.325 µM) of 0.321 and a relative viability ([21]; first compound 20 µM) of 0.1. It also gave a relative viability ([22]; first compound 0.2 µM) of 0.968, a relative viability ([22]; first compound 0.6325 µM) of 0.819 and a relative viability ([22]; first compound 2 µM) of 0.852. For the same compound, the relative viability ([22]; first compound 6.325 µM) was 0.209, the relative viability ([22]; first compound 20 µM) was 0.181 and the relative viability ([23]; first compound 0.2 µM) was 0.408. For the same compound, the relative viability ([23]; first compound 0.6325 µM) was 0.4, the relative viability ([23]; first compound 2 µM) was 0.548 and the relative viability ([23]; first compound 6.325 µM) was 0.237. It also gave a relative viability ([23]; first compound 20 µM) of 0.183.
